The target of this test is T1, STAT6 (Homo sapiens, UniProt P42226).
T1 construct: endogenous in cells; host or cells: MOLM-16, KU-812, SKNO1, MB231, L1236
T1 sequence (P42226 1-847): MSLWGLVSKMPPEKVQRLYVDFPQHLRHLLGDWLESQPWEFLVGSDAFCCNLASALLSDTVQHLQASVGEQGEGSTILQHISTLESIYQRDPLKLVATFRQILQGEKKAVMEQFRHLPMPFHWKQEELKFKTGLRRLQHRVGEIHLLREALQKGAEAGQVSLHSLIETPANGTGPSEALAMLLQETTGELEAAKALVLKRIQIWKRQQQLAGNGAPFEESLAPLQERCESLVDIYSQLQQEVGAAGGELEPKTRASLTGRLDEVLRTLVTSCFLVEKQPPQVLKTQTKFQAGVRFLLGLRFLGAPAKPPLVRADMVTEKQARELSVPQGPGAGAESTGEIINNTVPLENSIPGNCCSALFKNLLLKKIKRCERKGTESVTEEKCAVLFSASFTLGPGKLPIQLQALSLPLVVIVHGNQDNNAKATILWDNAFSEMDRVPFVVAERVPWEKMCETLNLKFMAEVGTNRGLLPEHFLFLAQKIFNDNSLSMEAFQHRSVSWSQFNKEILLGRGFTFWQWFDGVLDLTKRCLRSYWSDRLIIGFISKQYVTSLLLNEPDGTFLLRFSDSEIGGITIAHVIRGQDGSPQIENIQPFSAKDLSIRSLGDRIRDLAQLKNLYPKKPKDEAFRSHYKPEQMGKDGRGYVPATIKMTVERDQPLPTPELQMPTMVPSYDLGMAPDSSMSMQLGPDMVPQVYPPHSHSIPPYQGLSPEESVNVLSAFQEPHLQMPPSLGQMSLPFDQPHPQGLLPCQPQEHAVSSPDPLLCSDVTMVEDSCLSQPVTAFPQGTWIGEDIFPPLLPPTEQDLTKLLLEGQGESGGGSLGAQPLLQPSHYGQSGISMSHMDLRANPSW
The test is described as follows: Immunoblotting (Western blot) analysis of STAT6 degradation efficiency of degraders in treated cells. The format is cell-based. Summed up: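 Cells (~1 million per point) treated with compounds at indicated concentrations and times, lysed in RIPA with protease/phosphatase inhibitors; 20-40 μg protein run on SDS-PAGE and blotted to PVDF. STAT6 or STAT5 rabbit mAbs with GAPDH loading control, IRDye secondaries; near-infrared fluorescence scan, band intensity quantified.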
On the technique in general: A western blot detects proteins with antibodies after separation by electrophoresis.

[1] abbreviates: L1236 cells, read-out: DC50 S6 L1236.
[2] abbreviates: MOLM-16 cells, class symbols, read-out: DC50 S6 MOLM-16.

Like-named read-outs stand apart in the source and are kept apart here.

Broadly, the DC50 is the concentration at which degradation of the target reaches its halfway point. For the compound `Cc1ncsc1-c1ccc([C@H](C)NC(=O)[C@@H]2C[C@@H](O)CN2C(=O)[C@@H](NC(=O)CCCCCCNC(=O)CO[C@H]2C[C@@H](C(=O)N3CCC[C@H](c4ccccc4)C3)N(C(=O)[C@@H](NC(=O)c3cc4cc(C(F)(F)P(=O)(O)O)ccc4s3)C(C)(C)C)C2)C(C)(C)C)cc1` [Compound 439, (difluoro(2-(((S)-1-((2S,4S)-4-(2-((7-(((S)-1-((2S,4R)-4-hydroxy-2-(((S)-1-(4-(4-methylthiazol-5-yl)phenyl)ethyl)carbamoyl)pyrrolidin-1-yl)-3,3-dimethyl-1-oxobutan-2-yl)amino)-7-oxoheptyl)amino)-2-oxoethoxy)-2-((R)-3-phenylpiperidine-1-carbonyl)pyrrolidin-1-yl)-3,3-dimethyl-1-oxobutan-2-yl)carbamoyl)benzo[b]thiophen-5-yl)methyl)phosphonic acid], the DC50 by setting is: under setting [1], more than 10 µM; under setting [2], more than 10 µM.

On to `Cc1ncsc1-c1ccc([C@H](C)NC(=O)[C@@H]2C[C@@H](O)CN2C(=O)[C@@H](NC(=O)CCCCCCCNC(=O)CO[C@H]2C[C@@H](C(=O)N3CCC[C@H](c4ccccc4)C3)N(C(=O)[C@@H](NC(=O)c3cc4cc(C(F)(F)P(=O)(O)O)ccc4s3)C(C)(C)C)C2)C(C)(C)C)cc1` [Compound 440, (difluoro(2-(((S)-1-((2S,4S)-4-(2-((8-(((S)-1-((2S,4R)-4-hydroxy-2-(((S)-1-(4-(4-methylthiazol-5-yl)phenyl)ethyl)carbamoyl)pyrrolidin-1-yl)-3,3-dimethyl-1-oxobutan-2-yl)amino)-8-oxooctyl)amino)-2-oxoethoxy)-2-((R)-3-phenylpiperidine-1-carbonyl)pyrrolidin-1-yl)-3,3-dimethyl-1-oxobutan-2-yl)carbamoyl)benzo[b]thiophen-5-yl)methyl)phosphonic acid], for which the DC50 reads like this: under setting [1], more than 10 µM; under setting [2], more than 10 µM.

On to `Cc1ncsc1-c1ccc([C@H](C)NC(=O)[C@@H]2C[C@@H](O)CN2C(=O)[C@@H](NC(=O)CCCCCCCCNC(=O)CO[C@H]2C[C@@H](C(=O)N3CCC[C@H](c4ccccc4)C3)N(C(=O)[C@@H](NC(=O)c3cc4cc(C(F)(F)P(=O)(O)O)ccc4s3)C(C)(C)C)C2)C(C)(C)C)cc1` [Compound 441, (difluoro(2-(((S)-1-((2S,4S)-4-(2-((9-(((S)-1-((2S,4R)-4-hydroxy-2-(((S)-1-(4-(4-methylthiazol-5-yl)phenyl)ethyl)carbamoyl)pyrrolidin-1-yl)-3,3-dimethyl-1-oxobutan-2-yl)amino)-9-oxononyl)amino)-2-oxoethoxy)-2-((R)-3-phenylpiperidine-1-carbonyl)pyrrolidin-1-yl)-3,3-dimethyl-1-oxobutan-2-yl)carbamoyl)benzo[b]thiophen-5-yl)methyl)phosphonic acid], for which the DC50 is more than 10 µM under setting [1] and more than 10 µM under setting [2].

Regarding `Cc1ncsc1-c1ccc([C@H](C)NC(=O)[C@@H]2C[C@@H](O)CN2C(=O)[C@@H](NC(=O)CCCCCCCCCNC(=O)CO[C@H]2C[C@@H](C(=O)N3CCC[C@H](c4ccccc4)C3)N(C(=O)[C@@H](NC(=O)c3cc4cc(C(F)(F)P(=O)(O)O)ccc4s3)C(C)(C)C)C2)C(C)(C)C)cc1` [Compound 442, (difluoro(2-(((S)-1-((2S,4S)-4-(2-((10-(((S)-1-((2S,4R)-4-hydroxy-2-(((S)-1-(4-(4-methylthiazol-5-yl)phenyl)ethyl)carbamoyl)pyrrolidin-1-yl)-3,3-dimethyl-1-oxobutan-2-yl)amino)-10-oxodecyl)amino)-2-oxoethoxy)-2-((R)-3-phenylpiperidine-1-carbonyl)pyrrolidin-1-yl)-3,3-dimethyl-1-oxobutan-2-yl)carbamoyl)benzo[b]thiophen-5-yl)methyl)phosphonic acid], the DC50 was more than 10 µM under setting [1] and more than 10 µM under setting [2].

For the compound `Cc1ncsc1-c1ccc([C@H](C)NC(=O)[C@@H]2C[C@@H](O)CN2C(=O)[C@@H](NC(=O)CNC(=O)CC(=O)N2CCN(C(=O)[C@@H](NC(=O)c3cc4cc(C(F)(F)P(=O)(O)O)ccc4s3)C(C)(C)C)[C@H](C(=O)N3CCO[C@H](c4ccccc4)C3)C2)C(C)(C)C)cc1` [Compound 443, (difluoro(2-(((S)-1-((S)-4-(3-((2-(((S)-1-((2S,4R)-4-hydroxy-2-(((S)-1-(4-(4-methylthiazol-5-yl)phenyl)ethyl)carbamoyl)pyrrolidin-1-yl)-3,3-dimethyl-1-oxobutan-2-yl)amino)-2-oxoethyl)amino)-3-oxopropanoyl)-2-((R)-2-phenylmorpholine-4-carbonyl)piperazin-1-yl)-3,3-dimethyl-1-oxobutan-2-yl)carbamoyl)benzo[b]thiophen-5-yl)methyl)phosphonic acid], the DC50 was more than 10 µM under setting [1] and more than 10 µM under setting [2].

Turning to `Cc1ncsc1-c1ccc([C@H](C)NC(=O)[C@@H]2C[C@@H](O)CN2C(=O)[C@@H](NC(=O)CCNC(=O)CC(=O)N2CCN(C(=O)[C@@H](NC(=O)c3cc4cc(C(F)(F)P(=O)(O)O)ccc4s3)C(C)(C)C)[C@H](C(=O)N3CCO[C@H](c4ccccc4)C3)C2)C(C)(C)C)cc1` [Compound 444, (difluoro(2-(((S)-1-((S)-4-(3-((3-(((S)-1-((2S,4R)-4-hydroxy-2-(((S)-1-(4-(4-methylthiazol-5-yl)phenyl)ethyl)carbamoyl)pyrrolidin-1-yl)-3,3-dimethyl-1-oxobutan-2-yl)amino)-3-oxopropyl)amino)-3-oxopropanoyl)-2-((R)-2-phenylmorpholine-4-carbonyl)piperazin-1-yl)-3,3-dimethyl-1-oxobutan-2-yl)carbamoyl)benzo[b]thiophen-5-yl)methyl)phosphonic acid], the DC50 is more than 10 µM under setting [1] and more than 10 µM under setting [2].

As to `Cc1ncsc1-c1ccc([C@H](C)NC(=O)[C@@H]2C[C@@H](O)CN2C(=O)[C@@H](NC(=O)CCCNC(=O)CC(=O)N2CCN(C(=O)[C@@H](NC(=O)c3cc4cc(C(F)(F)P(=O)(O)O)ccc4s3)C(C)(C)C)[C@H](C(=O)N3CCO[C@H](c4ccccc4)C3)C2)C(C)(C)C)cc1` [Compound 445, (difluoro(2-(((S)-1-((S)-4-(3-((4-(((S)-1-((2S,4R)-4-hydroxy-2-(((S)-1-(4-(4-methylthiazol-5-yl)phenyl)ethyl)carbamoyl)pyrrolidin-1-yl)-3,3-dimethyl-1-oxobutan-2-yl)amino)-4-oxobutyl)amino)-3-oxopropanoyl)-2-((R)-2-phenylmorpholine-4-carbonyl)piperazin-1-yl)-3,3-dimethyl-1-oxobutan-2-yl)carbamoyl)benzo[b]thiophen-5-yl)methyl)phosphonic acid], the DC50 is more than 10 µM under setting [1] and more than 10 µM under setting [2].

For `Cc1ncsc1-c1ccc([C@H](C)NC(=O)[C@@H]2C[C@@H](O)CN2C(=O)[C@@H](NC(=O)CCCCNC(=O)CC(=O)N2CCN(C(=O)[C@@H](NC(=O)c3cc4cc(C(F)(F)P(=O)(O)O)ccc4s3)C(C)(C)C)[C@H](C(=O)N3CCO[C@H](c4ccccc4)C3)C2)C(C)(C)C)cc1` [Compound 446, (difluoro(2-(((S)-1-((S)-4-(3-((5-(((S)-1-((2S,4R)-4-hydroxy-2-(((S)-1-(4-(4-methylthiazol-5-yl)phenyl)ethyl)carbamoyl)pyrrolidin-1-yl)-3,3-dimethyl-1-oxobutan-2-yl)amino)-5-oxopentyl)amino)-3-oxopropanoyl)-2-((R)-2-phenylmorpholine-4-carbonyl)piperazin-1-yl)-3,3-dimethyl-1-oxobutan-2-yl)carbamoyl)benzo[b]thiophen-5-yl)methyl)phosphonic acid], the half-maximal degradation concentration (DC50) was more than 10 µM under setting [1] and more than 10 µM under setting [2].

(Values after patent publication US20230295197A1, “STAT5 and STAT6 Degraders and Uses Thereof” (REGENTS OF THE UNIVERSITY OF MICHICAN, priority 2022, published 2023).)
